# According to patent publication US6737383B1, “Herbicidal oxadiazolidines” (priority 1999, dated 2004):
# Columns and labels:
# velvetleaf = test: Test B pre/postemergence velvetleaf; assay type: in vivo, Abutilon theophrasti
# Procedure, shortened: (§1)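 Herbicidal effect was estimated by eye on a ten-point control scale after plants spent twelve to sixteen days in a greenhouse following soil or foliar treatment. Foliar sprays targeted plants at one to four leaves; all doses were formulated in a non-phytotoxic solvent with surfactant.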
# bamyardgrass = test: Test B flood test barnyardgrass; assay type: in vivo, Echinochloa crus-galli
# Procedure, shortened: (§2)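 Each value is a visual injury score relative to controls, with 10 meaning complete control and 0 no effect. Evaluation took place twelve to sixteen days after the 2-leaf-stage plants were treated and kept in the greenhouse.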
# duck salad = test: Test B flood test duck salad; assay type: in vivo, Heteranthera limosa
# Procedure, shortened: as §2
# surinam grass = test: Test B pre/postemergence surinam grass; assay type: in vivo, Brachiaria decumbens
# Procedure, shortened: as §1
# sugar beet = test: Test B pre/postemergence sugar beet; assay type: in vivo, Beta vulgaris
# Procedure, shortened: as §1
# rice = test: Test B flood test rice; assay type: in vivo, Oryza sativa
# Procedure, shortened: as §2
# pigweed = test: Test B pre/postemergence pigweed; assay type: in vivo, Amaranthus retroflexus
# Procedure, shortened: as §1
# corn = test: Test B pre/postemergence corn; assay type: in vivo, Zea mays
# Procedure, shortened: as §1
# blackgrass = test: Test B pre/postemergence blackgrass; assay type: in vivo, Alopecurus myosuroides
# Procedure, shortened: as §1
# cocklebur = test: Test B pre/postemergence cocklebur; assay type: in vivo, Xanthium strumarium
# Procedure, shortened: as §1
# purple nutsedge = test: Test B pre/postemergence purple nutsedge; assay type: in vivo, Cyperus rotundus
# Procedure, shortened: as §1
# morningglory = test: Test B pre/postemergence morningglory; assay type: in vivo, Ipomoea hederacea
# Procedure, shortened: as §1
# rape = test: Test B pre/postemergence rape; assay type: in vivo, Brassica napus
# Procedure, shortened: as §1
# giant foxtail = test: Test B pre/postemergence giant foxtail; assay type: in vivo, Setaria faberii
# Procedure, shortened: as §1
# bedstraw = test: Test B pre/postemergence bedstraw; assay type: in vivo, Galium aparine
# Procedure, shortened: as §1
# [1] = Preemergence, Rate 62 g/ha, scale of 0 to 10 where 0 is no effect and 10 is complete control
# [2] = Preemergence, Rate 250 g/ha, scale 0 to 10, 0 is no effect, 10 is complete control
# [3] = Preemergence, Rate 500 g/ha, scale of 0 to 10 where 0 is no effect and 10 is complete control
# [4] = Rate 62 g/ha, Postemergence, scale of 0 to 10 where 0 is no effect and 10 is complete control
# [5] = Rate 125 g/ha, Postemergence, scale 0 to 10
# [6] = Rate 62 g/ha, headed Pre-emergence (flood test species), scale 0 to 10 (0 no effect, 10 complete control)
# [7] = Rate 125 g/ha, Pre-emergence, flood test species, scale 0 to 10 where 0 is no effect and 10 is complete control
# [8] = Rate 250 g/ha, Pre-emergence, flood-test species, scale 0 to 10, 0 is no effect, 10 is complete control
# [9] = Rate 500 g/ha, headed Pre-emergence (flood test species), scale 0 to 10 (0 no effect, 10 complete control)
# [10] = Preemergence, Rate 125 g/ha, 0 is no effect, 10 is complete control
# [11] = Rate 500 g/ha, Postemergence, scale 0 to 10
smiles,measurement,setting,value
CSc1ccc(N(C(=O)n2oc(=O)n(-c3ccccc3C)c2=O)C(C)C)cc1 [Compound 205],Velvetleaf plant response rating,velvetleaf; [1],0
same,Velvetleaf plant response rating,velvetleaf; [2],0
same,"Plant response rating, Velvetleaf",velvetleaf; [3],0
same,Velvetleaf plant response rating,velvetleaf; [4],0
same,Velvetleaf plant response rating,velvetleaf; [5],0
same,"Plant response rating (0 to 10; 0 is no effect, 10 is complete control), Velvetleaf","velvetleaf; Rate 250 g/ha, Postemergence",0
same,Barnyardgrass plant response rating,bamyardgrass; [6],0
same,Barnyardgrass plant response rating,bamyardgrass; [7],0
same,Barnyardgrass plant response rating,bamyardgrass; [8],0
same,"Plant response rating, Barnyardgrass",bamyardgrass; [9],0
same,Ducksalad plant response rating,duck salad; [6],0
same,Ducksalad plant response rating,duck salad; [7],0
same,Ducksalad plant response rating,duck salad; [8],0
same,"Plant response rating, Ducksalad",duck salad; [9],0
same,B. signalgrass plant response rating,surinam grass; [1],0
same,B. signalgrass plant response rating (0 to 10 scale),surinam grass; [10],0
same,B. signalgrass plant response rating,surinam grass; [2],0
same,"Plant response rating, B. signalgrass",surinam grass; [3],0
same,B. signalgrass plant response rating,surinam grass; [4],0
same,B. signalgrass plant response rating,"surinam grass; Rate 125 g/ha, Postemergence, scale 0 (no effect) to 10 (complete control)",0
same,"Plant response rating, B. signalgrass","surinam grass; Rate 250 g/ha, Postemergence, scale 0 to 10, 0 is no effect, 10 is complete control",0
same,B. signalgrass plant response rating,"surinam grass; Rate 500 g/ha, Postemergence, scale 0 to 10, 0 no effect, 10 complete control",0
same,Sugarbeets plant response rating,sugar beet; [1],0
same,Sugarbeets plant response rating (0 to 10 scale),sugar beet; [10],0
same,Sugarbeets plant response rating,sugar beet; [2],0
same,"Plant response rating, Sugarbeets",sugar beet; [3],0
same,Sugarbeets plant response rating,sugar beet; [4],0
same,Sugarbeets plant response rating,sugar beet; [5],0
same,"Plant response rating (0 to 10; 0 is no effect, 10 is complete control), Sugarbeets","sugar beet; Rate 250 g/ha, Postemergence",0
same,Sugarbeets plant response rating,sugar beet; [11],0
same,Rice plant response rating,rice; [6],0
same,Rice plant response rating,rice; [7],0
same,Rice plant response rating,rice; [8],0
same,"Plant response rating, Rice",rice; [9],0
same,Redroot pigweed plant response rating,pigweed; [1],0
same,Redroot pigweed plant response rating (0 to 10 scale),pigweed; [10],0
same,Redroot pigweed plant response rating,pigweed; [2],0
same,"Plant response rating, Redroot pigweed",pigweed; [3],0
same,Redroot pigweed plant response rating,pigweed; [4],0
same,Redroot pigweed plant response rating,pigweed; [5],0
same,"Plant response rating (0 to 10; 0 is no effect, 10 is complete control), Redroot pigweed","pigweed; Rate 250 g/ha, Postemergence",0
same,Redroot pigweed plant response rating,pigweed; [11],0
same,Corn plant response rating,corn; [1],0
same,Corn plant response rating (0 to 10 scale),corn; [10],0
same,Corn plant response rating,corn; [2],0
same,"Plant response rating, Corn",corn; [3],0
same,Corn plant response rating,corn; [4],0
same,Corn plant response rating,corn; [5],0
same,"Plant response rating (0 to 10; 0 is no effect, 10 is complete control), Corn","corn; Rate 250 g/ha, Postemergence",0
same,Corn plant response rating,corn; [11],0
same,Blackgrass plant response rating,blackgrass; [1],0
same,Blackgrass plant response rating (0 to 10 scale),blackgrass; [10],0
same,Blackgrass plant response rating,blackgrass; [2],0
same,"Plant response rating, Blackgrass",blackgrass; [3],0
same,Blackgrass plant response rating,blackgrass; [4],0
same,Blackgrass plant response rating,blackgrass; [5],0
same,"Plant response rating (0 to 10; 0 is no effect, 10 is complete control), Blackgrass","blackgrass; Rate 250 g/ha, Postemergence",0
same,Blackgrass plant response rating,blackgrass; [11],0
same,Cocklebur plant response rating,cocklebur; [1],0
same,Cocklebur plant response rating (0 to 10 scale),cocklebur; [10],0
same,Cocklebur plant response rating,cocklebur; [2],0
same,"Plant response rating, Cocklebur",cocklebur; [3],0
same,Cocklebur plant response rating,cocklebur; [4],0
same,Cocklebur plant response rating,cocklebur; [5],1
same,"Plant response rating (0 to 10; 0 is no effect, 10 is complete control), Cocklebur","cocklebur; Rate 250 g/ha, Postemergence",1
same,Cocklebur plant response rating,cocklebur; [11],2
same,Nutsedge plant response rating,purple nutsedge; [2],0
same,Nutsedge plant response rating,purple nutsedge; [5],0
same,Nutsedge plant response rating,purple nutsedge; [11],0
same,Morningglory plant response rating,morningglory; [1],0
same,Morningglory plant response rating (0 to 10 scale),morningglory; [10],0
same,Morningglory plant response rating,morningglory; [2],0
same,"Plant response rating, Morningglory",morningglory; [3],0
same,Morningglory plant response rating,morningglory; [4],0
same,Morningglory plant response rating,morningglory; [5],0
same,"Plant response rating (0 to 10; 0 is no effect, 10 is complete control), Morningglory","morningglory; Rate 250 g/ha, Postemergence",1
same,Morningglory plant response rating,morningglory; [11],2
same,Rape plant response rating,rape; [1],0
same,Rape plant response rating (0 to 10 scale),rape; [10],0
same,Rape plant response rating,rape; [2],0
same,"Plant response rating, Rape",rape; [3],0
same,Rape plant response rating,rape; [4],0
same,Rape plant response rating,rape; [5],0
same,"Plant response rating (0 to 10; 0 is no effect, 10 is complete control), Rape","rape; Rate 250 g/ha, Postemergence",0
same,Rape plant response rating,rape; [11],0
same,Giant foxtail plant response rating,giant foxtail; [1],0
same,Giant foxtail plant response rating (0 to 10 scale),giant foxtail; [10],0
same,Giant foxtail plant response rating,giant foxtail; [2],0
same,"Plant response rating, Giant foxtail",giant foxtail; [3],3
same,Giant foxtail plant response rating,giant foxtail; [4],0
same,Giant foxtail plant response rating,giant foxtail; [5],0
same,"Plant response rating (0 to 10; 0 is no effect, 10 is complete control), Giant foxtail","giant foxtail; Rate 250 g/ha, Postemergence",0
same,Giant foxtail plant response rating,giant foxtail; [11],0
same,Bedstraw plant response rating,bedstraw; [1],0
same,Bedstraw plant response rating (0 to 10 scale),bedstraw; [10],0
same,Bedstraw plant response rating,bedstraw; [2],0
same,"Plant response rating, Bedstraw",bedstraw; [3],0
same,Bedstraw plant response rating,bedstraw; [4],0
same,Bedstraw plant response rating,bedstraw; [5],0
same,"Plant response rating (0 to 10; 0 is no effect, 10 is complete control), Bedstraw","bedstraw; Rate 250 g/ha, Postemergence",0
same,Bedstraw plant response rating,bedstraw; [11],0
